Data reported in patent US5869265A, “Ileal bile acid transporter compositions and methods” (Wake Forest University, priority 1996, dated 1999).
Where two headings read alike, the source gives them in different places.

How the values were obtained:
[1] = target: T1, human ileal/renal bile acid transporter (Homo sapiens, UniProt Q12908, S171A); experiment: Anion specificity of taurocholate uptake in HIBAT-transfected COS cells; details: for taurocholate uptake on replacing chloride (in words): anion in place of chloride; for Taurocholate Uptake, percentage of control: control = uptake in the presence of NaCl, 15 min, 137000 µM
T1 sequence (Q12908 1-348 S171A): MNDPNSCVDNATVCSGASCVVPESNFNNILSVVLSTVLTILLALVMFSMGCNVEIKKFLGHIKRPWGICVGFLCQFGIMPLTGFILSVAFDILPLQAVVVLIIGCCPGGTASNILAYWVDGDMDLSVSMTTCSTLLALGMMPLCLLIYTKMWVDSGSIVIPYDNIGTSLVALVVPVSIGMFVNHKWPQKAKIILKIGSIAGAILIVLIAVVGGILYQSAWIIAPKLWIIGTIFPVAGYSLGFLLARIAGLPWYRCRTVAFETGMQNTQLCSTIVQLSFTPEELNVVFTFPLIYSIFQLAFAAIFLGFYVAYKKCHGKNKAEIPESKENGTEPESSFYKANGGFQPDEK
Description: COS cells were seeded (1.5×10^6 cells/100 mm dish) in DMEM and transfected the following day with pCMV5-HIBAT or pCMV2-βgalactosidase (5 μg) by the DEAE-dextran method. On day 2, each group of transfected cells was treated with trypsin, pooled, and replated in 24-well culture plates at 7×10^4 cells/well. […] The cells were then lysed in 0.1N NaOH and aliquots were taken to determine protein and cell-associated radioactivity. […] Data are also given as percentage of control (uptake in the presence of NaCl).

[2] = target: T2, ileal Na^+ /bile acid cotransporter (IBAT) (Cricetulus griseus, UniProt Q60414); experiment: Inhibition of [^3 H]taurocholate uptake by organic anions in pIBAT-transfected COS cells (FIG. 6B); type: cell-based, hamster; details: 100 μM unlabeled inhibitor, 5 μM [^3 H]taurocholate
T2 construct: The hamster IBAT cDNA encodes a protein of 348 amino acids; expressed in transfected cells; host or cells: COS-1 cells, transient DEAE-dextran transfection with pIBAT (cDNA in pCMX)
T2 sequence (Q60414 1-348): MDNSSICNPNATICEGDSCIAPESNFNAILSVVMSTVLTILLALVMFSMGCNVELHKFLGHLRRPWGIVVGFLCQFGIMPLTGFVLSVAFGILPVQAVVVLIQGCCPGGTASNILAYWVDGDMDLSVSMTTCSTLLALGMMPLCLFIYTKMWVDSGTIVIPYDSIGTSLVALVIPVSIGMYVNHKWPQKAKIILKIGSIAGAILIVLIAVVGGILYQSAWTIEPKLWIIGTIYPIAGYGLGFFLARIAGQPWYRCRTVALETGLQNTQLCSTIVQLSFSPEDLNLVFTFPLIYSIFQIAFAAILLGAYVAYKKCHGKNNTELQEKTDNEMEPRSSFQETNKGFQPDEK
Description: FIG. 6B. […] COS cells were plated and transfected as described in the description of FIG. 4 (immediately above).
(§1) On day 0, dishes of 1.50×10^6 cells per 100-mm dish were plated in medium A. On day 1, the cells were transfected by the DEAE-dextran method (Esser et al., 1988) with 5 μg plasmid DNA. […] After the indicated amount of time at 37° C., the medium was removed, and each cell monolayer was washed and processed to determine cell-associated protein and radioactivity as described above.

liver membranes = details: cited from earlier work
[3] = target: T3, human ileal/renal bile acid transporter (Homo sapiens, UniProt Q12908); experiment: Cation specificity of taurocholate uptake in HIBAT-transfected COS cells; type: cell-based; details: 137 mM cation, 5 μM [^3 H]taurocholate, 15 min, 37° C., mean±SD of triplicate
T3 construct: were fused to make a single clone encoding the entire gene; expressed in transfected cells; host or cells: COS cells, transient DEAE-dextran transfection with pCMV5-HIBAT
T3 sequence (Q12908 1-348 S171A): T1 sequence (Q12908 1-348 S171A)
Description: (§2) COS cells were seeded (1.5×10^6 cells/100 mm dish) in DMEM and transfected the following day with pCMV5-HIBAT or pCMV2-βgalactosidase (5 μg) by the DEAE-dextran method. On day 2, each group of transfected cells was treated with trypsin, pooled, and replated in 24-well culture plates at 7×10^4 cells/well. […] The cells were then lysed in 0.1N NaOH and aliquots were taken to determine protein and cell-associated radioactivity. […] Data are also given as percentage of control (uptake in the presence of sodium).

[4] = test system: ileal/renal bile acid transporter; details: cation replacing Na^+; cited from earlier work
[5] = target: T1, human ileal/renal bile acid transporter; experiment: Cation specificity of taurocholate uptake in HIBAT-transfected COS cells; type: cell-based; design: were fused to make a single clone encoding the entire gene; expressed in transfected cells; host or cells: COS cells, transient DEAE-dextran transfection with pCMV5-HIBAT; details: for Taurocholate Uptake, percentage of control: control = uptake in the presence of sodium, 15 min, 137000 µM
Description: as §2

[6] = target: T1, human ileal/renal bile acid transporter; experiment: Substrate specificity: [^3 H]taurocholate competition in HIBAT-transfected COS cells (Dixon plot); type: cell-based; design: were fused to make a single clone encoding the entire gene; expressed in transfected cells; host or cells: COS cells, transient DEAE-dextran transfection with pCMV5-HIBAT
Excerpt: It is the ileal/renal bile acid transporter system's remarkable substrate specificity that makes it an appealing pharmacological target for the treatment of hypercholesterolemia by interrupting the enterohepatic circulation of bile acids. […] These studies of the major bile acid species were later extended in animal model systems to include various chemical derivatives of bile acids. However, the affinity of the human ileal/renal bile acid transporter for these natural bile acids has never been studied systematically. In addition to bile acids, the transport of other organic anions has been studied. […] The Km, Vmax, and Ki values were determined using Eadie-Hofstee and Dixon plot analysis.

[7] = target: T2, ileal Na^+ /bile acid cotransporter (IBAT); experiment: Competition for [^3 H]taurocholate uptake in pIBAT-transfected COS cells (transport specificity, FIG. 6A); type: cell-based, hamster; details: for inhibition of [^3 H]taurocholate uptake: 50 μM unlabeled competitor, 5 μM [^3 H]taurocholate (10-fold molar excess); for effect on [^3 H]taurocholate uptake (in words): 50 μM competitor, compared with taurocholate
Description: FIG. 6A. Transport specificity of pIBAT-transfected COS cells in the presence of competitors. COS cells were plated and transfected as described in the description of FIG. 4 (immediately above).
as §1
To examine the transport specificity of the IBAT protein, COS cells were transfected with the IBAT cDNA and incubated with 50 μM unlabeled bile acid or other competitor.

[8] = test system: liver taurocholate uptake; details: cited from earlier work
ileal transporter = details: in vivo; cited from earlier work
[9] = target: T2, ileal Na^+ /bile acid cotransporter (IBAT); experiment: Sodium-dependence of taurocholate uptake in IBAT-transfected COS cells; type: cell-based, hamster
Description: as §1

cholestasis = details: patients with cholestasis; cited from earlier work

Molecule: CC(=O)O [Acetate, sodium acetate]
- taurocholate uptake on replacing chloride (in words) [1]: markedly reduced

Molecule: O=C1OC(c2ccc(O)c(S(=O)(=O)O)c2)(c2ccc(O)c(S(=O)(=O)O)c2)c2c(Br)c(Br)c(Br)c(Br)c21 [BSP, bromosulfophthalein]
- inhibition of [^3 H]taurocholate uptake (in words) [2]: not to be significantly inhibited
- inhibition of [^3 H]taurocholate uptake (in words) ([2]; listed as bromosulfophthalein (BSP)): not inhibited
- inhibition of Na^+ -dependent taurocholate uptake (in words) (liver membranes): shown to inhibit

Molecule: [Cs+] [Cesium]
- Taurocholate Uptake [3]: 0.2 ± 0.01 pmol/min/mg
- effect of replacing Na^+ on active taurocholate transport (in words) [4]: significantly inhibited
- Taurocholate Uptake, percentage of control [5]: 2%

Molecule: C[C@H](CCC(=O)O)[C@H]1CC[C@H]2[C@@H]3[C@H](O)C[C@@H]4C[C@H](O)CC[C@]4(C)[C@H]3CC[C@]12C [Chenodeoxycholate]
- Ki [6]: 3.3 ± 1.9 µM

Molecule: Cl [Chloride]
- Taurocholate Uptake, percentage of control [1]: 100%

Molecule: C[C@H](CCC(=O)O)[C@H]1CC[C@H]2[C@@H]3[C@H](O)C[C@@H]4C[C@H](O)CC[C@]4(C)[C@H]3C[C@H](O)[C@]12C [Cholate]
- inhibition of [^3 H]taurocholate uptake [7]: 51%

Molecule: O=C(O)CC(O)(CC(=O)O)C(=O)O [Citrate]
- taurocholate uptake on replacing chloride (in words) [1]: markedly reduced

Molecule: O=S(=O)(O)c1cc(N=C=S)ccc1C=Cc1ccc(N=C=S)cc1S(=O)(=O)O [DIDS, 4,4'-diisothiocyano-2,2'-disulfonic acid stilbene]
- competition for liver taurocholate uptake (in words) [8]: compete for liver taurocholate uptake
- inhibition of [^3 H]taurocholate uptake (in words) [2]: not to be significantly inhibited
- inhibition of [^3 H]taurocholate uptake (in words) ([2]; listed as 4,4'-diisothiocyano-2,2'-disulfonic acid stilbene (DIDS)): not inhibited
- effect against the ileal transporter (in words) (ileal transporter): ineffective
- inhibition of Na^+ -dependent taurocholate uptake (in words) (liver membranes): shown to inhibit

Molecule: C[C@H](CCC(=O)O)[C@H]1CC[C@H]2[C@@H]3CC[C@@H]4C[C@H](O)CC[C@]4(C)[C@H]3C[C@H](O)[C@]12C [Deoxycholate]
- Ki [6]: 6.4 ± 2.5 µM

Molecule: [Li] [Lithium]
- Taurocholate Uptake [3]: 0.3 ± 0.04 pmol/min/mg
- effect of replacing Na^+ on active taurocholate transport (in words) [4]: significantly inhibited

Molecule: [K+] [Potassium]
- Taurocholate Uptake [3]: 0.3 ± 0.17 pmol/min/mg
- effect of replacing Na^+ on active taurocholate transport (in words) [4]: significantly inhibited
- support of [^3 H]taurocholate uptake (in words) ([9]; in place of 137 mM Na^+, equal concentration): unable to support
- taurocholate uptake on replacing Na^+ (in words) ([5]; cation replacing Na^+): dramatically reduced
- Taurocholate Uptake, percentage of control [5]: 3%

Molecule: [Rb] [Rubidium]
- Taurocholate Uptake [3]: 0.3 ± 0.09 pmol/min/mg
- effect of replacing Na^+ on active taurocholate transport (in words) [4]: significantly inhibited
- Taurocholate Uptake, percentage of control [5]: 3%

Molecule: [Na+] [Sodium]
- Taurocholate Uptake [3]: 9.2 ± 0.41 pmol/min/mg
- taurocholate uptake (100% of control value) ([9]; 137 mM sodium, 5 μM [^3 H]taurocholate, 15 minutes): 134±26 pmoles min^-1 mg^-1 protein
- Taurocholate Uptake, percentage of control [5]: 100%

Molecule: O=S(=O)(O)O [Sulfate]
- Taurocholate Uptake, percentage of control [1]: 69%

Molecule: C[C@H](CCC(=O)NCCS(=O)(=O)O)[C@H]1CC[C@H]2[C@@H]3[C@H](O)C[C@@H]4C[C@H](O)CC[C@]4(C)[C@H]3CC[C@]12C [Taurochenodeoxycholate, taurochenodeoxycholate]
- Ki ([6]; read-out: Apparent Ki): 3.2 ± 0.5 µM
- effect on [^3 H]taurocholate uptake (in words) [7]: competed more effectively
- effect on [^3 H]taurocholate uptake (in words) ([7]; listed as taurochenodeoxycholic acid): more effective competitors
- inhibition of [^3 H]taurocholate uptake [7]: 87%

Molecule: C[C@H](CCC(=O)NCCS(=O)(=O)O)[C@H]1CC[C@H]2[C@@H]3CC[C@@H]4C[C@H](O)CC[C@]4(C)[C@H]3C[C@H](O)[C@]12C [Taurodeoxycholate, taurodeoxycholate]
- Ki [6]: 17.3 ± 3.9 µM
- effect on [^3 H]taurocholate uptake (in words) [7]: competed more effectively
- effect on [^3 H]taurocholate uptake (in words) ([7]; listed as taurodeoxycholic acid): more effective competitors
- inhibition of [^3 H]taurocholate uptake [7]: 80%

Molecule: C[C@H](CCC(=O)NCCS(=O)(=O)O)[C@H]1CC[C@H]2[C@@H]3[C@@H](O)C[C@@H]4C[C@H](O)CC[C@]4(C)[C@H]3CC[C@]12C [Tauroursodeoxycholate]
- Ki ([6]; read-out: Apparent Ki): 28.4 ± 7.4 µM

Molecule: C[C@H](CCC(=O)O)[C@H]1CC[C@H]2[C@@H]3[C@@H](O)C[C@@H]4C[C@H](O)CC[C@]4(C)[C@H]3CC[C@]12C [Ursodeoxycholate, Ursodeoxycholic acid]
- treatment outcome (in words) (cholestasis): improves liver function, but does not stop the progression of the disease
- Ki [6]: 77.1 ± 17.2 µM

Molecule: C=CC1=C(C)/C(=C/c2[nH]c(Cc3[nH]c(/C=C4\NC(=O)C(C)=C4C=C)c(C)c3CCC(=O)O)c(CCC(=O)O)c2C)NC1=O [bilirubin]
- competition for liver taurocholate uptake (in words) [8]: compete for liver taurocholate uptake
- effect against the ileal transporter (in words) (ileal transporter): ineffective

Molecule: CC1(C)C(/C=C/C=C/C=C/C=C2\N(CCCCS(=O)(=O)O)c3ccc4ccccc4c3C2(C)C)=[N+](CCCCS(=O)(=O)[O-])c2ccc3ccccc3c21 [indocyanine green]
- competition for liver taurocholate uptake (in words) [8]: compete for liver taurocholate uptake
- effect against the ileal transporter (in words) (ileal transporter): ineffective

Molecule: NCCS(=O)(=O)O [taurine]
- effect on [^3 H]taurocholate uptake (in words) [7]: limited effect

Molecule: Phosphate
- taurocholate uptake on replacing chloride (in words) [1]: markedly reduced
- Taurocholate Uptake, percentage of control [1]: 31%

Molecule: phalloidin
- competition for liver taurocholate uptake (in words) [8]: compete for liver taurocholate uptake
- effect against the ileal transporter (in words) (ileal transporter): ineffective
